# Experimental data: PMC12332266 (Frontiers in Pharmacology, 2025)
# Counter-ions that a name gives are not always drawn. Like-named read-outs stand apart in the source and are kept apart here.
# Assays:
# [1] = system: hiPSC-CM (iCell Cardiomyocytes^2); test: RTCA CardioECR assessment (impedance and electrophysiology parameters)
# Outline: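 iCell^2 cardiomyocytes on fibronectin-coated ePlates monitored continuously by impedance for cell index, beating rate and amplitude. Field potential duration and spike amplitude were recorded from day 4–6 after monolayer formation. Data were double-normalized to DMSO control and baseline, with variability given as SD.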
# [2] = system: hiPSC-CM (iCell Cardiomyocytes^2); test: Intracellular miRNA expression by RT-qPCR in hiPSC-CM pellets after 72-hour treatment
# Outline: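 After 72-hour treatment and RTCA CardioECR assessment, total RNA from hiPSC-CM pellets was reverse transcribed, pre-amplified and quantified by TaqMan RT-qPCR against a 17-miRNA panel. Triplicates were pooled, so no statistical analysis was performed.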
# [3] = ref extensive literature search, cited from earlier work
# [4] = hiPSC-CM, 72-hour treatment, Supplementary Table 1
# [5] = hiPSC-CM, 72-hour treatment, change from baseline
# [6] = hiPSC-CM, 72-hour treatment, lowest concentration causing at least 20% change from baseline
smiles,measurement,setting,value
CC(C)C[C@H](NC(=O)CNC(=O)c1cc(Cl)ccc1Cl)B1OC(=O)C(CC(=O)O)(CC(=O)O)O1 [Ixazomib Citrate],Contractility Amplitude magnitude of effect at MEC,"[1]; hiPSC-CM, 72-hour treatment",-94%
same,Field Potential Duration magnitude of effect at MEC,"[1]; hiPSC-CM, 72-hour treatment",-35%
same,Spike Amplitude (SA) magnitude of effect at MEC,"[1]; hiPSC-CM, 72-hour treatment",+75%
same,Beating Rate magnitude of effect at MEC,[1]; [4],+33%
same,Cell Index magnitude of effect at MEC,[1]; [4],-37%
same,Field Potential Duration MEC,"[1]; hiPSC-CM, 72-hour treatment, at least 10% change",0.03 µM
same,Contractility Amplitude MEC,"[1]; hiPSC-CM, 72-hour treatment, at least 20% change",0.1 µM
same,Beating Rate MEC,"[1]; hiPSC-CM, 72-hour treatment, at least 20% change, Supplementary Table 1",0.03 µM
same,Spike Amplitude (SA) MEC,"[1]; hiPSC-CM, 72-hour treatment, at least 40% change",0.03 µM
same,Beating rate (BR) magnitude of effect at MEC,[1]; [5],+33%
same,Cell index (CI) magnitude of effect at MEC,[1]; [5],−37%
same,Beating rate (BR) MEC,[1]; [6],0.03 µM
same,Cell index (CI) MEC,[1]; [6],0.3 µM
same,"RTCA, MEC (BR)","[1]; hiPSC-CM, change ≥20%, Table 2",0.03 µM
same,"RTCA, MEC (CI)","[1]; hiPSC-CM, change ≥20%, Table 2",0.3 µM
same,"hsa-miR-7-5p fold change, intracellular","[2]; 0.03 µM, 72 h",2.0
same,"hsa-miR-29a-5p fold change, intracellular","[2]; 0.03 µM, 72 h",1.5
same,"hsa-miR-96-5p fold change, intracellular","[2]; 0.03 µM, 72 h",8.8
same,"hsa-miR-126-3p fold change, intracellular","[2]; 0.03 µM, 72 h",1.7
same,"hsa-miR-133b fold change, intracellular","[2]; 0.03 µM, 72 h",1.2
same,"hsa-miR-146b-5p fold change, intracellular","[2]; 0.03 µM, 72 h",1.0
same,"hsa-miR-182-5p fold change, intracellular","[2]; 0.03 µM, 72 h",1.4
same,"hsa-miR-185-3p fold change, intracellular","[2]; 0.03 µM, 72 h",1.0
same,"hsa-miR-187-3p fold change, intracellular","[2]; 0.03 µM, 72 h",1.1
same,"hsa-miR-208b-3p fold change, intracellular","[2]; 0.03 µM, 72 h",0.9
same,"hsa-miR-7-5p fold change, intracellular","[2]; 0.1 µM, 72 h",0.3
same,"hsa-miR-29a-5p fold change, intracellular","[2]; 0.1 µM, 72 h",2.0
same,"hsa-miR-96-5p fold change, intracellular","[2]; 0.1 µM, 72 h",6.4
same,"hsa-miR-126-3p fold change, intracellular","[2]; 0.1 µM, 72 h",1.8
same,"hsa-miR-133b fold change, intracellular","[2]; 0.1 µM, 72 h",25.3
same,"hsa-miR-146b-5p fold change, intracellular","[2]; 0.1 µM, 72 h",1.9
same,"hsa-miR-182-5p fold change, intracellular","[2]; 0.1 µM, 72 h",34.9
same,"hsa-miR-185-3p fold change, intracellular","[2]; 0.1 µM, 72 h",0.4
same,"hsa-miR-187-3p fold change, intracellular","[2]; 0.1 µM, 72 h",3.1
same,"hsa-miR-208b-3p fold change, intracellular","[2]; 0.1 µM, 72 h",0.0
same,"hsa-miR-365a-5p fold change, intracellular","[2]; 0.1 µM, 72 h",44.3
same,"hsa-miR-7-5p fold change, intracellular","[2]; 0.3 µM, 72 h",6.9
same,"hsa-miR-29a-5p fold change, intracellular","[2]; 0.3 µM, 72 h",1.7
same,"hsa-miR-96-5p fold change, intracellular","[2]; 0.3 µM, 72 h",13.0
same,"hsa-miR-126-3p fold change, intracellular","[2]; 0.3 µM, 72 h",2.7
same,"hsa-miR-133b fold change, intracellular","[2]; 0.3 µM, 72 h",0.4
same,"hsa-miR-146b-5p fold change, intracellular","[2]; 0.3 µM, 72 h",7.1
same,"hsa-miR-182-5p fold change, intracellular","[2]; 0.3 µM, 72 h",8.5
same,"hsa-miR-185-3p fold change, intracellular","[2]; 0.3 µM, 72 h",2.0
same,"hsa-miR-187-3p fold change, intracellular","[2]; 0.3 µM, 72 h",1.6
same,"hsa-miR-208b-3p fold change, intracellular","[2]; 0.3 µM, 72 h",0.8
same,"hsa-miR-365a-5p fold change, intracellular","[2]; 0.3 µM, 72 h",2.5
same,"hsa-miR-7-5p fold change, intracellular","[2]; 1 µM, 72 h",12.6
same,"hsa-miR-29a-5p fold change, intracellular","[2]; 1 µM, 72 h",4.7
same,"hsa-miR-96-5p fold change, intracellular","[2]; 1 µM, 72 h",13.4
same,"hsa-miR-126-3p fold change, intracellular","[2]; 1 µM, 72 h",3.1
same,"hsa-miR-133b fold change, intracellular","[2]; 1 µM, 72 h",0.6
same,"hsa-miR-146b-5p fold change, intracellular","[2]; 1 µM, 72 h",3.2
same,"hsa-miR-182-5p fold change, intracellular","[2]; 1 µM, 72 h",5.6
same,"hsa-miR-185-3p fold change, intracellular","[2]; 1 µM, 72 h",0.9
same,"hsa-miR-187-3p fold change, intracellular","[2]; 1 µM, 72 h",2.4
same,"hsa-miR-208b-3p fold change, intracellular","[2]; 1 µM, 72 h",0.9
same,"intracellular miRNA upregulation in hiPSC-CM, in words","[2]; 72-hour treatment, four concentrations per drug","highly upregulated hsa-miR-133b, hsa-miR-182-5pand hsa-miR-365a-5p"
same,miRNAs upregulated at the MEC overall (hiPSC-CM pellet),"[2]; fold change ≥2, 72 h","miR-126-3p, miR-29a-5p, miR-7-5p, miR-96-5p"
same,"miRNAs hiPSC-CM pellet, MEC overall","[2]; lowest concentration tested which produced miRNA upregulation (fold change ≥2), 72 h",0.03 µM
same,Cmax total,[3]; Supplementary Table 1,213 nM
same,Cmax total,[3]; Table 1,210 nM
CS(=O)(=O)CCNCc1ccc(-c2ccc3ncnc(Nc4ccc(OCc5cccc(F)c5)c(Cl)c4)c3c2)o1 [Lapatinib],"RTCA, MEC (CI)","[1]; hiPSC-CM, change ≥20%, Table 2","ND (ND – not detected, magnitude of change was lower than 20% for CI/BR)"
same,Field Potential Duration MEC,"[1]; human, 72 h",0.1 µM
same,Spike Amplitude (SA) MEC,"[1]; human, 72 h",0.1 µM
same,"miRNAs hiPSC-CM pellet, MEC overall",[2],0.1 µM
same,miRNAs upregulated at the MEC overall (hiPSC-CM pellet),[2],"miR-126-3p, miR-146b-5p, miR-182-5p, miR-187-3p"
same,Cmax total,[3]; Supplementary Table 1,4180 nM
same,Cmax total,[3]; Table 1,4180 nM
